In PubChem BioAssay AID2060338 (Molecular Pharmacology Branch, DTP, NCI, 2025) one finds IC50 and viability, T/C data, which are given here for 8 compounds.

Molecules are shown by their SMILES. Values joined by “and” are separate entries in the source; they are usually repeats but may differ in a detail not shown here. Identical values can stand only once.

In the experiment the test system is 556581-035-R-J1-PDC spheroids with HUVEC/MSC, viability. The experiment is described as follows: Anticancer human tumor 556581-035-R-J1-PDC patient-derived ovarian carcinoma cell line growth inhibition [IpAb]. Conditions: for viability, T/C: stronger effect = lower value. In outline:
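Combinations with ipatasertib or abemaciclib were tested on tumour spheroids holding HUVEC (25%) and MSC (15%) alongside 60% malignant cells. Top concentration was at or near clinical Cmax (10 microM if undefined), descending in half-log steps.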

Setting [1] is: curve of first compound, second compound 0.1 µM.
[2] abbreviates: curve of first compound, second compound 0.316 µM.
Setting [3] is: curve of first compound, second compound 1 µM.
[4] abbreviates: curve of first compound, second compound 3.16 µM.
Where [5] appears, read: curve of first compound, second compound 10 µM.
The mark [6] stands for this setting: second compound 0.1 µM, first compound 0.0316 µM.
Where [7] appears, read: second compound 0.1 µM, first compound 0.1 µM.
Setting [8] is: second compound 0.1 µM, first compound 0.316 µM.
[9] abbreviates: second compound 0.1 µM, first compound 1 µM.
[10] abbreviates: second compound 0.1 µM, first compound 3.16 µM.
[11] abbreviates: second compound 0.1 µM, first compound 10 µM.
Where [12] appears, read: second compound 0.316 µM, first compound 0.0316 µM.
[13] abbreviates: second compound 0.316 µM, first compound 0.1 µM.
The mark [14] stands for this setting: second compound 0.316 µM, first compound 0.316 µM.
Setting [15] is: second compound 0.316 µM, first compound 1 µM.
The mark [16] stands for this setting: second compound 0.316 µM, first compound 3.16 µM.
Where [17] appears, read: second compound 0.316 µM, first compound 10 µM.
Setting [18] is: second compound 1 µM, first compound 0.0316 µM.
Where [19] appears, read: second compound 1 µM, first compound 0.1 µM.
Setting [20] is: second compound 1 µM, first compound 0.316 µM.
Where [21] appears, read: second compound 1 µM, first compound 1 µM.
The mark [22] stands for this setting: second compound 1 µM, first compound 3.16 µM.
Where [23] appears, read: second compound 1 µM, first compound 10 µM.
Where [24] appears, read: second compound 3.16 µM, first compound 0.0316 µM.
Setting [25] is: second compound 3.16 µM, first compound 0.1 µM.
Setting [26] is: second compound 3.16 µM, first compound 0.316 µM.
Setting [27] is: second compound 3.16 µM, first compound 1 µM.
Setting [28] is: second compound 3.16 µM, first compound 3.16 µM.
Where [29] appears, read: second compound 3.16 µM, first compound 10 µM.
Where [30] appears, read: second compound 10 µM, first compound 0.0316 µM.
[31] abbreviates: second compound 10 µM, first compound 0.1 µM.
Where [32] appears, read: second compound 10 µM, first compound 0.316 µM.
The mark [33] stands for this setting: second compound 10 µM, first compound 1 µM.
Where [34] appears, read: second compound 10 µM, first compound 3.16 µM.
The mark [35] stands for this setting: second compound 10 µM, first compound 10 µM.

Broadly, the IC50 is the point on the concentration scale where inhibition reaches its midpoint. A word on the viability, T/C: it is the ratio of treated to control.
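Note: spheroids exposed to compounds for 7 days before readout.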

As for `C=CC(=O)N1CCN(c2nc(=O)n(-c3c(C)ccnc3C(C)C)c3nc(-c4c(O)cccc4F)c(F)cc23)C(C)C1` (configuration not stated) + CC(C)NCC(C(=O)N1CCN(c2ncnc3c2C(C)CC3O)CC1)c1ccc(Cl)cc1, the IC50 was 5.38 µM under setting [1]; 6.53 µM under setting [2]; 4.02 µM under setting [3]; 1.79 µM under setting [4]; less than 0.0316 µM under setting [5]. The viability, T/C under setting [6] was 99.9%; the viability, T/C under setting [7] is 108%; the viability, T/C under setting [8] is 103%; the viability, T/C under setting [9] was 111%; the viability, T/C under setting [10] is 68.6%; the viability, T/C under setting [11] is 28.3%. Besides, the viability, T/C is 79.8% under setting [12]; 79.1% under setting [13]; 74% under setting [14]; 85.1% under setting [15]; 73.4% under setting [16]; 35.4% under setting [17]. Further, the viability, T/C is, setting by setting: under setting [18], 74.3%; under setting [19], 65.6%; under setting [20], 59.8%; under setting [21], 64%; under setting [22], 57%; under setting [23], 28.4%. Also, the viability, T/C is 54.5% under setting [24]; 54.5% under setting [25]; 52.6% under setting [26]; 47.9% under setting [27]; 48.9% under setting [28]; 21.8% under setting [29]. The viability, T/C under setting [30] is 44.6%; the viability, T/C under setting [31] is 48.2%; the viability, T/C under setting [32] is 45.5%; the viability, T/C under setting [33] is 48.5%; the viability, T/C under setting [34] was 34.9%; the viability, T/C under setting [35] is 13.5%.
With `CC(C)NCC(C(=O)N1CCN(c2ncnc3c2C(C)CC3O)CC1)c1ccc(Cl)cc1` (configuration not stated), the viability, T/C is, setting by setting: (compound 3.16 µM) 49% [middle of 13 runs]; (compound 10 µM) 45.5% [middle of 12 runs].
`CC1(C)CCC(CN2CCN(c3ccc(C(=O)NS(=O)(=O)c4ccc(NCC5CCOCC5)c([N+](=O)[O-])c4)c(Oc4cnc5[nH]ccc5c4)c3)CC2)=C(c2ccc(Cl)cc2)C1`: the viability, T/C is, setting by setting: (compound 0.0316 µM) 105% and 99.1%; (compound 0.1 µM) 103% and 102%; (compound 0.316 µM) 95.2% and 99%; (compound 1 µM) 94% and 108%; (compound 3.16 µM) 105% and 97.4%; (compound 10 µM) 27.4% and 15.8%. Under “curve of compound”, the IC50 was 6.99 µM and 6.18 µM.
For the compound `Cn1nccc1Nc1nccc(-c2ccn(C(CO)c3ccc(Cl)c(F)c3)c(=O)c2)n1` (configuration not stated), the viability, T/C is 114% and 133% (compound 0.0316 µM); 117% and 135% (compound 0.1 µM); 103% and 124% (compound 0.316 µM); 86.2% and 104% (compound 1 µM); 61.3% and 88.7% (compound 3.16 µM); 17.8% and 38.4% (compound 10 µM). The IC50 (curve of compound) was 4.16 µM and 7.69 µM.
For the compound `C=CCn1c(=O)c2cnc(Nc3ccc(N4CCN(C)CC4)cc3)nc2n1-c1cccc(C(C)(C)O)n1`, the viability, T/C reads like this: (compound 0.0316 µM) 102% and 109%; (compound 0.1 µM) 72.1% and 83.2%; (compound 0.316 µM) 28.2% and 29.8%; (compound 1 µM) 39.7% and 41.9%; (compound 3.16 µM) 50.2% and 42%; (compound 10 µM) 36.3% and 35.7%. Also, where the note is “curve of compound”, the IC50 was 0.214 µM and 0.23 µM.
For `Cn1nccc1Nc1nccc(-c2ccn(C(CO)c3ccc(Cl)c(F)c3)c(=O)c2)n1` (configuration not stated) + CC(C)NCC(C(=O)N1CCN(c2ncnc3c2C(C)CC3O)CC1)c1ccc(Cl)cc1, the IC50 was 2.48 µM under setting [1]; 2.33 µM under setting [2]; 0.165 µM under setting [3]; less than 0.0316 µM under setting [4]; less than 0.0316 µM under setting [5]. Further, the viability, T/C was 94.8% under setting [6]; 75.4% under setting [7]; 71.8% under setting [8]; 62.4% under setting [9]; 50.2% under setting [10]; 31.3% under setting [11]. The viability, T/C was 61.6% under setting [12]; 79.6% under setting [13]; 60.1% under setting [14]; 51.5% under setting [15]; 52.2% under setting [16]; 13.2% under setting [17]. For the same compound, the viability, T/C is 55.8% under setting [18]; 61.6% under setting [19]; 41% under setting [20]; 29.3% under setting [21]; 24.8% under setting [22]; 9.12% under setting [23]. The viability, T/C was 48.4% under setting [24]; 36.4% under setting [25]; 38.1% under setting [26]; 22.7% under setting [27]; 11.6% under setting [28]; 5.62% under setting [29]. Besides, the viability, T/C runs as follows: under setting [30], 35.7%; under setting [31], 31.3%; under setting [32], 27.8%; under setting [33], 17.6%; under setting [34], 12.3%; under setting [35], 1.97%.
Take `CCCS(=O)(=O)Nc1ccc(F)c(C(=O)c2c[nH]c3ncc(-c4ccc(Cl)cc4)cc23)c1F`: the viability, T/C is 93.4% and 104% (compound 0.0316 µM); 103% and 99.8% (compound 0.1 µM); 105% and 108% (compound 0.316 µM); 92.9% and 98.8% (compound 1 µM); 110% and 104% (compound 3.16 µM); 75.7% and 78.5% (compound 10 µM). Moreover, where the note is “curve of compound”, the IC50 was greater than 10 µM.
Consider `CC(C)n1nc(-c2ccc3oc(N)nc3c2)c2c(N)ncnc21`, for which the viability, T/C reads like this: (compound 0.000316 µM) 99.2% and 88.1%; (compound 0.001 µM) 62.2% and 89.2%; (compound 0.00316 µM) 70.7% and 66.5%; (compound 0.01 µM) 45.7% and 44.2%; (compound 0.0316 µM) 34.7% and 34%; (compound 0.1 µM) 25.1% and 23.4%. Further, the IC50 (curve of compound) was 0.00784 µM and 0.00775 µM.
